Molecular target: T1, EP2 receptor (Homo sapiens, UniProt P43116)
T1 construct: expressed in transfected cells; host or cells: CHO-K1 cells (ATCC), transient transfection with FuGENE 6
Assay: EP2 potency assay (cAMP TR-FRET, LANCE Ultra cAMP kit) in transfected CHO-K1 cells stimulated with PGE2 at EC80
Assay type: cell-based
Details: EP2 antagonism, CHO-K1 cells expressing EP2, PGE2 at EC80
Experimental: Compound potency was measured using a cAMP TR-FRET assay. CHO-K1 cells (ATCC) were seeded at a density of 9.75×105 in 6 cm plates, and then on the following day cell media was changed to Opti-Mem I reduced serum media (Gibco), and transfected with a plasmid for expression of the EP2 receptor (the target receptor of interest), using the FuGENE 6 Transfection reagent (Promega). After 6 hours incubation, the cell media was replaced with F12 medium supplemented with 10% FBS and 100 U/ml Pen-Strep. 24 hours after transfection, cells were harvested and seeded at a density of 3000 cells/well in a 384 well plate to perform the cAMP assay, using the LANCE Ultra cAMP assay kit (PerkinElmer). For each test compound of interest, 10 nl/well of serially diluted test compound was added to each well, resulting in a range of 10 serially diluted compound concentrations from 10000 nM to 0.038 nM, with duplicate wells for each concentration. Plates were then centrifuged at 1000 rpm for 1 min, agitated at 600 rpm at R.T. for 2 min, and incubated at 25° C. for 5 min. The reference agonist, prostaglandin E2 (MCE), was added to each well at the appropriate concentration to reach its EC80 value. Plates were then centrifuged at 1000 rpm for 1 min, agitated at 600 rpm at R.T. for 2 min, and incubated at 25° C. for 30 min. To measure levels of cAMP, 5 μl/well of Eu-cAMP working solution and 5 μl/well of Ulight-anti-cAMP working solution were added to each well, and the plate was centrifuged at 1000 rpm for 1 min, agitated at 600 rpm at R.T. for 2 min, and incubated at 25° C. for 15 min. Levels of TR-FRET fluorescence were measured in each well using an EnVision microplate reader (excitation wavelength=337 nm and emission wavelength=615 and 665 nm). A dose-response curve was prepared by plotting percent inhibition for each compound concentration, and then IC50 was calculated by fitting a curve to the plotted values and extrapolating the IC50 concentration. […] Potency data is grouped into categories of AA (IC50<100 nM); A (IC50=100 to 500 nM); B (IC50=500 nM to […]); C (IC50=1 μM to 5 μM); and D (IC50>5 μM).

T1 sequence (P43116 whole entry): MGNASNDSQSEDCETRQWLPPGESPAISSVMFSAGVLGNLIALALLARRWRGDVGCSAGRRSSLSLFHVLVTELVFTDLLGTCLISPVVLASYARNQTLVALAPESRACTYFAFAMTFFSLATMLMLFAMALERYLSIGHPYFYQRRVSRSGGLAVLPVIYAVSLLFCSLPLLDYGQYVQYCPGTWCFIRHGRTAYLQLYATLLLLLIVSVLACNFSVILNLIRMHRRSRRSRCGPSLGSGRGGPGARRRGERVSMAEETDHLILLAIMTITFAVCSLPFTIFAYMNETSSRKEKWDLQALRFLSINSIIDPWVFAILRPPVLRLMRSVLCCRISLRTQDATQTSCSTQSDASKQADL

An IC50 (Table (V)) of less than 100 nM was found for `CS(=O)(=O)NC(=O)c1ncc(CN2CCOc3c(Cl)cc(-n4ccc5cc(F)ccc54)cc3C2)cn1` [II-25, 5-((9-chloro-7-(5-fluoro-1H-indol-1-yl)-2,3-dihydrobenzo[f][1,4]oxazepin-4(5H)-yl)methyl)-N-(methylsulfonyl)pyrimidine-2-carboxamide] in this work.
An IC50 (Table (IV)) greater than 5000 nM was found for `COc1ccc(C(=O)N2CCC(COc3ccc(Br)cc3)(C(O)C(F)(F)F)C2)cc1` (stereo not drawn) [I-14, (3-((4-bromophenoxy)methyl)-3-(2,2,2-trifluoro-1-hydroxyethyl)pyrrolidin-1-yl)(4-methoxyphenyl)methanone] in this work.
An IC50 (Table (V)) of less than 100 nM was found for `O=c1ncc(CN2CCOc3c(Cl)cc(-c4csc5cc(F)ccc45)cc3C2)c[nH]1` [II-47, 5-((9-chloro-7-(6-fluorobenzo[b]thiophen-3-yl)-2,3-dihydrobenzo[f][1,4]oxazepin-4(5H)-yl)methyl)pyrimidin-2(1H)-one] in this work.
An IC50 (Table (V)) of 100 to 500 nM was found for `Nc1ncc(CN2CCOc3c(Cl)cc(-n4ccc5cc(F)ccc54)cc3C2)c(N)n1` [II-11, 5-((9-chloro-7-(5-fluoro-1H-indol-1-yl)-2,3-dihydrobenzo[f][1,4]oxazepin-4(5H)-yl)methyl)pyrimidin-2,4-diamine] in this work.
An IC50 (Table (IV)) of 100 to 500 nM was found for `COc1ccc(C(=O)N2CCC(COc3ccc(C45CC(C(N)=O)(C4)C5)cc3)(C(=O)O)C2)cc1` (stereo not drawn) [I-8, 3-(4-{3-carbamoylbicyclo[1.1.1]pentan-1-yl}phenoxymethyl)-1-(4-methoxybenzoyl)pyrrolidine-3-carboxylic acid] in this work.
An IC50 (Table (V)) of 100 to 500 nM was found for `COc1ncc(CN2CCOc3c(Cl)cc(-c4csc5cc(F)ccc45)cc3C2)cn1` [II-46, 9-chloro-7-(6-fluorobenzo[b]thiophen-3-yl)-4-((2-methoxypyrimidin-5-yl)methyl)-2,3,4,5-tetrahydrobenzo[f][1,4]oxazepine] in this work.
An IC50 (Table (V)) of 1000 to 5000 nM was found for `Fc1ccc2c(ccn2-c2cc(Cl)c3c(c2)CN(Cc2cnc(C(F)(F)F)nc2)CCO3)c1` [II-8, 9-chloro-7-(5-fluoro-1H-indol-1-yl)-4-((2-(trifluoromethyl)pyrimidin-5-yl)methyl)-2,3,4,5-tetrahydrobenzo[f][1,4] oxazepine] in this work.
An IC50 (Table (IV)) of 100 to 500 nM was found for `COc1ccc(C(=O)N2CCC(COc3ccc(C45CC(C4)C5)cc3)(C(=O)O)C2)cc1` (stereo not drawn) [I-7, 3-((4-(bicyclo[1.1.1]pentan-1-yl)phenoxy)methyl)-1-(4-methoxybenzoyl)pyrrolidine-3-carboxylic acid] in this work.
An IC50 (Table (V)) of less than 100 nM was found for `COc1ncc(CN2CCOc3c(Cl)cc(-c4coc5cc(F)ccc45)cc3C2)cn1` [II-48, 9-chloro-7-(6-fluorobenzofuran-3-yl)-4-((2-methoxypyrimidin-5-yl)methyl)-2,3,4,5-tetrahydrobenzo[f][1,4]oxazepine] in this work.
An IC50 (Table (V)) of 100 to 500 nM was found for `Cn1ncc(CN2CCOc3c(Cl)cc(-n4ccc5cc(F)ccc54)cc3C2)cc1=O` [II-32, 5-((9-chloro-7-(5-fluoro-1H-indol-1-yl)-2,3-dihydrobenzo[f][1,4]oxazepin-4(5H)-yl)methyl)-2-methylpyridazin-3(2H)-one] in this work.
An IC50 (Table (V)) of less than 100 nM was found for `Fc1ccc2c(ccn2-c2cc(Cl)c3c(c2)CN(Cc2cnc(-c4nnn[nH]4)nc2)CCO3)c1F` [II-42, 4-((2-(1H-tetrazol-5-yl)pyrimidin-5-yl)methyl)-9-chloro-7-(4,5-difluoro-1H-indol-1-yl)-2,3,4,5-tetrahydrobenzo[f][1,4]oxazepine] in this work.
An IC50 (Table (V)) of 1000 to 5000 nM was found for `Fc1ccc2c(ccn2-c2cc(Cl)c3c(c2)CN(Cc2cnc(-n4cccn4)nc2)CCO3)c1` [II-7, 4-((2-(1H-pyrazol-1-yl)pyrimidin-5-yl)methyl)-9-chloro-7-(5-fluoro-1H-indol-1-yl)-2,3,4,5-tetrahydrobenzo[f][1,4] oxazepine] in this work.
An IC50 (Table (V)) of 1000 to 5000 nM was found for `O=c1ncc(CN2CCOc3c(Cl)cc(-n4ccc5cc(F)c(F)cc54)cc3C2)c[nH]1` [II-4, 5-((9-chloro-7-(5,6-difluoro-1H-indol-1-yl)-2,3-dihydrobenzo[f][1,4]oxazepin-4(5H)-yl)methyl)pyrimidin-2(1H)-one] in this work.
An IC50 (Table (V)) of 1000 to 5000 nM was found for `Cn1cc(-c2ncc(CN3CCOc4c(Cl)cc(-n5ccc6cc(F)ccc65)cc4C3)cn2)cn1` [II-2, 9-chloro-7-(5-fluoro-1H-indol-1-yl)-4-((2-(1-methyl-1H-pyrazol-4-yl)pyrimidin-5-yl)methyl)-2,3,4,5-tetrahydrobenzo[f][1,4] oxazepine] in this work.
An IC50 (Table (IV)) greater than 5000 nM was found for `COc1ccc(C(N2CCC(COc3ccc(-c4ccc(C#N)cc4)cc3)(C(=O)O)C2)C(F)(F)F)cc1` (stereo not drawn) [I-2, 3-(((4′-cyano-[1,1′-biphenyl]-4-yl)oxy)methyl)-1-(2,2,2-trifluoro-1-(4-methoxyphenyl)ethyl)pyrrolidine-3-carboxylic acid] in this work.
An IC50 (Table (V)) of 100 to 500 nM was found for `COc1ncc(CN2CCOc3c(Cl)cc(-c4coc5c(F)c(F)ccc45)cc3C2)cn1` [II-39, 9-chloro-7-(6,7-difluorobenzofuran-3-yl)-4-((2-methoxypyrimidin-5-yl)methyl)-2,3,4,5-tetrahydrobenzo[f][1,4]oxazepine] in this work.
An IC50 (Table (IV)) of less than 100 nM was found for `COc1ccc(C(=O)N2CCC(COc3ccc(C45CC(C#N)(C4)C5)cc3)(C(=O)O)C2)cc1` (stereo not drawn) [I-6, 3-((4-(3-cyanobicyclo[1.1.1]pentan-1-yl)phenoxy)methyl)-1-(4-methoxybenzoyl)pyrrolidine-3-carboxylic acid] in this work.
An IC50 (Table (V)) of less than 100 nM was found for `COc1ncc(CN2CCOc3c(Cl)cc(-n4ncc5cc(F)ccc54)cc3C2)cn1` [II-33, 9-chloro-7-(5-fluoro-1H-indazol-1-yl)-4-((2-methoxypyrimidin-5-yl)methyl)-2,3,4,5-tetrahydrobenzo[f][1,4]oxazepine] in this work.
An IC50 (Table (IV)) greater than 5000 nM was found for `COc1ccc(C(=O)N2CCC(COc3ccc(-c4ccc(C#N)cc4)cc3)(S(=O)(=O)NS(C)(=O)=O)C2)cc1` (stereo not drawn) [I-10, 3-(((4′-cyano-[1,1′-biphenyl]-4-yl)oxy)methyl)-1-(4-methoxybenzoyl)-N-(methylsulfonyl)pyrrolidine-3-sulfonamide] in this work.
An IC50 (Table (V)) of 500 to 1000 nM was found for `Fc1ccc2c(ccn2-c2cc(Cl)c3c(c2)CN(Cc2cnc(C4CC4)nc2)CCO3)c1` [II-21, 9-chloro-4-((2-cyclopropylpyrimidin-5-yl)methyl)-7-(5-fluoro-1H-indol-1-yl)-2,3,4,5-tetrahydrobenzo[f][1,4]oxazepine] in this work.
An IC50 (Table (IV)) greater than 5000 nM was found for `COc1ccc(C(=O)N2CCC(COc3ccc(C45CC(C(=O)O)(C4)C5)cc3)(C(=O)O)C2)cc1` (stereo not drawn) [I-11, 3-((4-(3-carboxybicyclo[1.1.1]pentan-1-yl)phenoxy)methyl)-1-(4-methoxybenzoyl)pyrrolidine-3-carboxylic acid] in this work.
An IC50 (Table (V)) of less than 100 nM was found for `Nc1ncc(CN2CCOc3c(Cl)cc(-n4ccc5c(F)c(F)ccc54)cc3C2)cn1` [II-36, 5-((9-chloro-7-(4,5-difluoro-1H-indol-1-yl)-2,3-dihydrobenzo[f][1,4]oxazepin-4(5H)-yl)methyl)pyrimidin-2-amine] in this work.
An IC50 (Table (V)) of less than 100 nM was found for `O=C(O)c1ccc(CN2CCOc3c(Cl)cc(-n4ccc5cc(F)ccc54)cc3C2)cn1` [II-15, 5-((9-chloro-7-(5-fluoro-1H-indol-1-yl)-2,3-dihydrobenzo[f][1,4]oxazepin-4(5H)-yl)methyl)picolinic acid] in this work.
An IC50 (Table (V)) of less than 100 nM was found for `CS(=O)(=O)Nc1cc(CN2CCOc3c(Cl)cc(-n4ccc5cc(F)ccc54)cc3C2)cnn1` [II-52, N-(5-((9-chloro-7-(5-fluoro-1H-indol-1-yl)-2,3-dihydrobenzo[f][1,4]oxazepin-4(5H)-yl)methyl)pyridazin-3-yl)methanesulfonamide] in this work.
